Data on 1 molecule can be found in patent US7452908B2, “Amide derivatives” (Banyu Pharmaceutical Co., Ltd., priority 1999, dated 2008).

Test [1] deals with T1, human m4 muscarinic acetylcholine receptor expressed in CHO cells (Homo sapiens, UniProt P08173).
T1 construct: purchased Receptor Biology, Inc; host or cells: CHO cells
T1 sequence (P08173 1-479): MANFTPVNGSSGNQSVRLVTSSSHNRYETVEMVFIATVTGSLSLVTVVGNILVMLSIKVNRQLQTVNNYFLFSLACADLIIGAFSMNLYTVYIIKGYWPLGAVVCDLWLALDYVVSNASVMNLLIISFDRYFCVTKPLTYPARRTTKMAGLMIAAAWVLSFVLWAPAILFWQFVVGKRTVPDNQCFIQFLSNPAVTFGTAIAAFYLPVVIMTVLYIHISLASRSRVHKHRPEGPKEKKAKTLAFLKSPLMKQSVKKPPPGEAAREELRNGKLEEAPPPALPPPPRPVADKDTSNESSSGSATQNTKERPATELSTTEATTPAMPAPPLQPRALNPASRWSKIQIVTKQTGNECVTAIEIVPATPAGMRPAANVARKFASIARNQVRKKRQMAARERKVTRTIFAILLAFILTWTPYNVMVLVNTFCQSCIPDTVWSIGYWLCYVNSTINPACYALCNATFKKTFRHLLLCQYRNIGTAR
The test is described as follows: Inhibition of [3H]-N-methylscopolamine binding to muscarinic m4 receptor. Particulars: 0.2 nM [3H]-N-methylscopolamine. The procedure:
(§1) These tests were performed according to a modification of the method of Hargreaves, et al. (Br. J. Pharmacol. 107: 494-501, 1992). Namely, muscarinic acetylcholine receptors of human m1, m2, m3, m4 and m5 expressed in CHO cells (Receptor Biology, Inc.) were incubated with 0.2 nM [^3H]-N-methylscopolamine (82Ci/mmol, New England Nuclear, Inc.) and a test compound to be tested in 0.5 ml of 50 mM Tris-HCl, 10 mM MgCl2, 1 mM EDTA solution (pH 7.4) for 120 minutes at room temperature (about 20-25° C.), followed by suction filtration over a glass filter (UniFilter plate-GF/C; Packard). Then the filter was washed four times with 1 ml of ice-cold Tris-HCl buffer and dried at 50° C. for an hour. After adding a scintillator (Microscinti 0; Packard), the radioactivity of [^3H]-N-methylscopolamine binding to the filter was counted with a microplate scintillation counter (TopCount™; Packard). Non-specific receptor binding of [^3H]-N-methylscopolamine was measured by adding 1 μM N-methylscopolamine.

Test [2] deals with T2, human m3 muscarinic acetylcholine receptor expressed in CHO cells (Homo sapiens, UniProt P20309).
T2 construct: purchased Receptor Biology, Inc; host or cells: CHO cells
Description: Inhibition of [3H]-N-methylscopolamine binding to muscarinic m3 receptor. How it is done:
as §1

The target in test [3] is T3, human m1 muscarinic acetylcholine receptor expressed in CHO cells (Homo sapiens, UniProt P11229).
T3 construct: purchased Receptor Biology, Inc; host or cells: CHO cells
T3 sequence (P11229 1-460): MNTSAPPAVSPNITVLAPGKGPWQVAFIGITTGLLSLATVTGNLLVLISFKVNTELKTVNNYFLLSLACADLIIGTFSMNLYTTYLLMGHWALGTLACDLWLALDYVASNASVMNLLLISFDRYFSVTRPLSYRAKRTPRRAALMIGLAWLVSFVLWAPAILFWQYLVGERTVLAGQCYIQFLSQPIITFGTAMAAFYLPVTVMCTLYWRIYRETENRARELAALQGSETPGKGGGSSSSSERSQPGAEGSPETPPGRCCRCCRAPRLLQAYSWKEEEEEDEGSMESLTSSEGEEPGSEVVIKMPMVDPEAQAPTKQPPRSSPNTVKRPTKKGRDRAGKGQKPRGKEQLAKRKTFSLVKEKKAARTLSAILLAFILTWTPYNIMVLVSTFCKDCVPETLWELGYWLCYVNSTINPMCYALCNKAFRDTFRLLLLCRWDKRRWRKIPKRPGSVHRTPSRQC
The test is described as follows: Inhibition of [3H]-N-methylscopolamine binding to muscarinic m1 receptor. Particulars: 0.2 nM [3H]-N-methylscopolamine. The procedure: as §1

Another test addresses T4, M3 receptor (Canis lupus familiaris, UniProt A0A8I3N190).
T4 construct: from tissue; host or cells: whole animal, male beagle dogs (in vivo, airway)
The test is described as follows: Antagonism to M3 receptor: bronchodilation in anesthetized dogs (methacholine provocation test). In kind it is in vivo, beagle dogs. The note with it: inhalation of 1 mg/ml for 10 minutes, methacholine threshold four hours after administration. How it is done:
The bronchodilation action of inhaled test compound was evaluated by measuring the compounds' inhibitory action on respiratory resistance-increasing reaction induced by a methacholine provocation test. For the experiment, 12 to 36 months old male beagle dogs (weighing 10-15 kg) were used. After being anesthetized by intravenous pentobarbital administration (30 mg/kg), the dogs were intubated cannulae in their trachea. After their respiration became stable, the cannulae were connected with Astograph (TCK-6100H, Chest) and a methacholine provocation test by 3 Hz oscillation method was conducted. […] The methacholine concentration at which the respiratory resistance increased to twice the initial value was recorded as the methacholine reaction threshold value. Before evaluating the test compounds, the methacholine reaction threshold value^1) under no drug treatment was measured at least twice at a week's interval, to select the dogs showing reproducible reaction.
The inhaling administration of each test compound (1 mg/ml) was conducted for 10 minutes under pentobarbital anesthetization (30 mg/kg, i.v.), with the nebulizer in the Astograph. […] The bronchodilator activity (shift value) of each tested compound was determined according to the following equation: […]

In test [4] the target is T5, human m2 muscarinic acetylcholine receptor expressed in CHO cells (Homo sapiens, UniProt P08172).
T5 construct: purchased Receptor Biology, Inc; host or cells: CHO cells
T5 sequence (P08172 1-466): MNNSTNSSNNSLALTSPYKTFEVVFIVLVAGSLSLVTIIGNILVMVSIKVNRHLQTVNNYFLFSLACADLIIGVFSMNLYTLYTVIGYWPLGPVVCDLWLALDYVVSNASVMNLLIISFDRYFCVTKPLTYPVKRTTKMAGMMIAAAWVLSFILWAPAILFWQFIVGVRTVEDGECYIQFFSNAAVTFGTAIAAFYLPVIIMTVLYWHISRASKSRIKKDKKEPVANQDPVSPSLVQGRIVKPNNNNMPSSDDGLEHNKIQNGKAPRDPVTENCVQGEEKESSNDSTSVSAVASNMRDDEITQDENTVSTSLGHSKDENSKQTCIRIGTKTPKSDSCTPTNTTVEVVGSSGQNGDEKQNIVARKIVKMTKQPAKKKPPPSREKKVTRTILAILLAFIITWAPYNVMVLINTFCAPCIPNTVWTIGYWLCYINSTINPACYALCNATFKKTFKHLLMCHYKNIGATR
Description: Inhibition of [3H]-N-methylscopolamine binding to muscarinic m2 receptor. Particulars: 0.2 nM [3H]-N-methylscopolamine. The procedure:
as §1

Test [5] deals with T6, human m5 muscarinic acetylcholine receptor expressed in CHO cells (Homo sapiens, UniProt P08912).
T6 construct: purchased Receptor Biology, Inc; host or cells: CHO cells
T6 sequence (P08912 1-532): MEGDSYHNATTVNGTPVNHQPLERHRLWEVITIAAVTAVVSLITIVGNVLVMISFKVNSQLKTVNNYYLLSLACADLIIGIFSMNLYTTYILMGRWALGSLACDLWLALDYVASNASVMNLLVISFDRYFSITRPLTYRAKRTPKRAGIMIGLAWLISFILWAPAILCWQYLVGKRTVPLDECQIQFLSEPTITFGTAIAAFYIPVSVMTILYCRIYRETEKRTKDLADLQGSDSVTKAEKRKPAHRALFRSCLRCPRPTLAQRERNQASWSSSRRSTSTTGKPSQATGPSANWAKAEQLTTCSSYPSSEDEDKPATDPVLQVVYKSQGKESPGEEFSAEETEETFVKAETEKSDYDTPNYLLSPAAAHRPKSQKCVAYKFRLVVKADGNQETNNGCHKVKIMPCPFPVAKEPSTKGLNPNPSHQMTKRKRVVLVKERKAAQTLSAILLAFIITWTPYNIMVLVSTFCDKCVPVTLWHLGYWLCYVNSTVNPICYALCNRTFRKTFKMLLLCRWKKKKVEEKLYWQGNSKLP
Description: Inhibition of [3H]-N-methylscopolamine binding to muscarinic m5 receptor. Particulars: 0.2 nM [3H]-N-methylscopolamine. The procedure: as §1

Structures are written as SMILES.

T2 sequence (P20309 whole entry): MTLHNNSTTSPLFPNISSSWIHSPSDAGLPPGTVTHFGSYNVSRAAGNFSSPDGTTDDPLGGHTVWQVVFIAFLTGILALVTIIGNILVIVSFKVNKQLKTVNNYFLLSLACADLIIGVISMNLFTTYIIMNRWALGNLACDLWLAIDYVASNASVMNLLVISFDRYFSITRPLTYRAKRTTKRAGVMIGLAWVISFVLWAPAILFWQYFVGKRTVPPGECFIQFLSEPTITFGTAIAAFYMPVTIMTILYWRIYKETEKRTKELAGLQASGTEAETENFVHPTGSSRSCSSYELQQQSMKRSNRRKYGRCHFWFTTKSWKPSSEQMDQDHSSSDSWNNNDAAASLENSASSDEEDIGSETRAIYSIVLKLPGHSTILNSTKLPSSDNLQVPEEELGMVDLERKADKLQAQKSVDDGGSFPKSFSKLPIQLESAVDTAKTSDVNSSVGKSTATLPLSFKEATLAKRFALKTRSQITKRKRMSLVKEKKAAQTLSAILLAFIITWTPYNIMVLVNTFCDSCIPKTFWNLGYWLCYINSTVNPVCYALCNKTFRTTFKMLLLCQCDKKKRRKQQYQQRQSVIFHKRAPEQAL
T4 sequence (A0A8I3N190 1-590): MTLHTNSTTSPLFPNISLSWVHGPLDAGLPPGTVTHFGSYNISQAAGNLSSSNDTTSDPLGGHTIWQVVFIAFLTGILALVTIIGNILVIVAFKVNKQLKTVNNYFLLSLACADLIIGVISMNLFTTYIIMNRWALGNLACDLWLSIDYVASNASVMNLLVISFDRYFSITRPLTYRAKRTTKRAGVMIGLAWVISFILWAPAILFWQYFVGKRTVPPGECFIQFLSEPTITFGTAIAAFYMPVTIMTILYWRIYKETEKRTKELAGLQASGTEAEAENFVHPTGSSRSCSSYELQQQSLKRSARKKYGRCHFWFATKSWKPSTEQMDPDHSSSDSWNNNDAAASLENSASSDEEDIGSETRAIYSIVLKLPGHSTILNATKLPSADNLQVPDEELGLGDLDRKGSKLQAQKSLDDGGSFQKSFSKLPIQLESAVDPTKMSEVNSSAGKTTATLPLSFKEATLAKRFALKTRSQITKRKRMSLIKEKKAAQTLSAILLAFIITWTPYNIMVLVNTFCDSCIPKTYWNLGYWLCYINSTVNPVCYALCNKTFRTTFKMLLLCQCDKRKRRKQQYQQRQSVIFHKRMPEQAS

On to `O=C(NC[C@H]1CCC[N+]2(CCCC2)C1)[C@H]1CCCN1C(=O)[C@@H]1C[C@@H](O)CN1C(=O)CC(c1ccccc1)(c1ccccc1)c1ccccc1.[Cl-]` [Example 151, (7R)-7-({({(2R)-1-({(2S,4R)-4-hydroxy-1-(3,3,3-triphenylpropanoyl)-2-pyrrolidinyl}carbonyl)-2-pyrrolidinyl}carbonyl)amino}methyl)-5-azoniaspiro [4.5]decane chloride], for which the inhibition constant Ki in test [1] was found to be 0.074 µM; in test [2] (human m3 in CHO cells, 0.2 nM [3H]-N-methylscopolamine), 0.0035 µM; in test [3], 0.45 µM; in test [4], 0.46 µM; in test [5] it was 0.89 µM. For the same molecule, the “Selectivity m1/m3” value in test [2] (ratio of Ki m1 to Ki m3) is given as 130 times. In addition, the “Selectivity m2/m3” value in test [2] (ratio of Ki m2 to Ki m3) amounted to 130 times. Besides, the “Selectivity m4/m3” value in test [2] (ratio of Ki m4 to Ki m3) is given as 21 times. In addition, the “Selectivity m5/m3” value in test [2] (ratio of Ki m5 to Ki m3) amounted to 250 times. The “Shift (fold) Airway constriction M3” value at M3 receptor is given as more than 40.0 fold.

By Ki is commonly meant the dissociation constant of the complex between target and ligand, obtained from inhibition or displacement. A lower Ki goes with higher affinity.
